Source: the supplement of paper PMC4862054

What was measured:
Settings in all cases: incubation time: 72 h
DU-4475 [1] = assay: normalised response (% of control), CellTox Green; higher = less cell death (100 = DMSO, 0 = benzethonium chloride kill control)
Outline: (§1)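 After 72 h with compound in 384-well plates, breast cancer cell lines seeded as 20 µl suspension were read for CellTox Green fluorescence at 485/520 nm. CellTiter-Glo luminescence was then read after 10 min at room temperature. Compound was present at 5 concentrations in 10-fold steps over a 10,000-fold range set per compound, and plates were normalised to 0.1 % DMSO (100) and a positive kill control (0). Values are normalised signals, each at a single concentration.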

MDA-MB-468 [2] = assay: as above
Outline: as §1

MCF-10A [3] = assay: as above
Outline: as §1

BT-474 [4] = assay: as above
Outline: as §1

Hs578T [5] = assay: as above
Outline: as §1

HCC1599 [6] = assay: as above
Outline: as §1

CAL-148 [7] = assay: as above
Outline: as §1

HCC1143 [8] = assay: as above
Outline: as §1

MDA-MB-453 [9] = assay: as above
Outline: as §1

MDA-MB-231 [10] = assay: as above
Outline: as §1

HCC1937 [11] = assay: as above
Outline: as §1

BT-549 [12] = assay: as above
Outline: as §1

CAL-120 [13] = assay: as above
Outline: as §1

CAL-51 [14] = assay: as above
Outline: as §1

MDA-MB-436 [15] = assay: as above
Outline: as §1

MFM-223 [16] = assay: as above
Outline: as §1

CAL-85-1 [17] = assay: as above
Outline: as §1

HDQ-P1 [18] = assay: as above
Outline: as §1

DU-4475 [19] = assay: normalised response (% of control), CellTiter-Glo; higher = more viable cells (100 = DMSO, 0 = benzethonium chloride kill control)
Outline: as §1

MDA-MB-468 [20] = assay: as above
Outline: as §1

MCF-10A [21] = assay: as above
Outline: as §1

SK-BR-3 = assay: as above
Outline: as §1

BT-474 [22] = assay: as above
Outline: as §1

Hs578T [23] = assay: as above
Outline: as §1

HCC1599 [24] = assay: as above
Outline: as §1

CAL-148 [25] = assay: as above
Outline: as §1

HCC1143 [26] = assay: as above
Outline: as §1

MDA-MB-453 [27] = assay: as above
Outline: as §1

MDA-MB-231 [28] = assay: as above
Outline: as §1

HCC1937 [29] = assay: as above
Outline: as §1

BT-549 [30] = assay: as above
Outline: as §1

CAL-120 [31] = assay: as above
Outline: as §1

CAL-51 [32] = assay: as above
Outline: as §1

MDA-MB-436 [33] = assay: as above
Outline: as §1

MFM-223 [34] = assay: as above
Outline: as §1

CAL-85-1 [35] = assay: as above
Outline: as §1

HDQ-P1 [36] = assay: as above
Outline: as §1

| SMILES | normalised response (DU-4475 [1]) | normalised response (MDA-MB-468 [2]) | normalised response (MCF-10A [3]) | normalised response (BT-474 [4]) | normalised response (Hs578T [5]) | normalised response (HCC1599 [6]) | normalised response (CAL-148 [7]) | normalised response (HCC1143 [8]) | normalised response (MDA-MB-453 [9]) | normalised response (MDA-MB-231 [10]) | normalised response (HCC1937 [11]) | normalised response (BT-549 [12]) | normalised response (CAL-120 [13]) | normalised response (CAL-51 [14]) | normalised response (MDA-MB-436 [15]) | normalised response (MFM-223 [16]) | normalised response (CAL-85-1 [17]) | normalised response (HDQ-P1 [18]) | normalised response (DU-4475 [19]) | normalised response (MDA-MB-468 [20]) | normalised response (MCF-10A [21]) | normalised response (SK-BR-3) | normalised response (BT-474 [22]) | normalised response (Hs578T [23]) | normalised response (HCC1599 [24]) | normalised response (CAL-148 [25]) | normalised response (HCC1143 [26]) | normalised response (MDA-MB-453 [27]) | normalised response (MDA-MB-231 [28]) | normalised response (HCC1937 [29]) | normalised response (BT-549 [30]) | normalised response (CAL-120 [31]) | normalised response (CAL-51 [32]) | normalised response (MDA-MB-436 [33]) | normalised response (MFM-223 [34]) | normalised response (CAL-85-1 [35]) | normalised response (HDQ-P1 [36]) |
| --- | --- | --- | --- | --- | --- | --- | --- | --- | --- | --- | --- | --- | --- | --- | --- | --- | --- | --- | --- | --- | --- | --- | --- | --- | --- | --- | --- | --- | --- | --- | --- | --- | --- | --- | --- | --- | --- |
| CC(C)Cn1cnc2c(N)nc3ccccc3c21 [Imiquimod] (250 nM) | 101% | 119% | 109% | 88.2% | 54.6% | 97.7% | 76.8% | 99.4% | 103% | 102% | 112% | 98.3% | 99.5% | 94.4% | 107% | 92.9% | 89.3% | 104% | 103% | 97% | 104% | 105% | 110% | 98.7% | 104% | 98% | 101% | 107% | 105% | 93% | 105% | 95% | 99% | 101% | 101% | 97.5% | 97.7% |
| N#CCNC(=O)c1ccc(-c2ccnc(Nc3ccc(N4CCOCC4)cc3)n2)cc1 [Momelotinib] (1000 nM) | 97.7% | 178% | 108% | 101% | 99.4% | 95.9% | 98.7% | 113% | 108% | 100% | – | 96.5% | 102% | 117% | 103% | 99.5% | 89.6% | 111% | 90.5% | 82.5% | 77% | 86.6% | 77.1% | 93% | 110% | 85% | 91.7% | 113% | 77.2% | 108% | 89.6% | 75.8% | 122% | 96.9% | 93.4% | 92.7% | 107% |
| NC(=O)Nc1cc(-c2cccc(F)c2)sc1C(=O)N[C@H]1CCCNC1 [AZD7762] (100 nM) | 100% | 50.3% | – | 102% | 64.1% | 103% | 102% | 82.6% | 101% | 105% | 125% | 105% | 99.8% | 104% | 83.7% | 101% | 36.1% | 103% | 98.4% | 99.3% | 91.6% | 99.6% | 93.7% | 93% | 78.5% | 97.9% | 96.8% | 83.2% | 88.7% | 97.2% | 73.4% | 95.9% | 111% | 92.4% | 104% | 59.5% | 95.2% |
| COc1cc2ncnc(Nc3ccc(F)c(Cl)c3)c2cc1NC(=O)/C=C/CN1CCCCC1 [Dacomitinib] (100 nM) | 99.5% | 74.8% | 94.3% | 70.4% | 101% | 99.1% | 97.8% | 102% | 87.4% | 109% | 92.7% | 98.9% | 96.7% | 78.7% | 96.8% | 100% | 80.4% | 89.4% | 96.2% | 87.1% | 38.9% | 36.1% | 94% | 101% | 110% | 82% | 94.9% | 72.7% | 97.5% | 93.3% | 95.4% | 99.7% | 112% | 92.1% | 105% | 61% | 68.6% |
| N.N.[Cl][Pt][Cl] [Cisplatin] (100 nM) | 107% | 94.6% | -220% | 99.2% | 85.4% | 97.4% | 105% | 109% | 110% | 74% | – | 80.2% | 109% | 103% | 107% | 82.7% | 121% | 118% | 90.2% | 98.5% | 1.72% | 99.2% | 102% | 102% | 98.7% | 90.7% | 104% | 94.9% | 98.7% | 102% | 90.4% | 101% | 116% | 101% | 96.6% | 96.2% | 107% |
| O=C(CCCCCCC(=O)Nc1ccc([C@H]2O[C@@H](CSc3nc(-c4ccccc4)c(-c4ccccc4)o3)C[C@@H](c3ccc(CO)cc3)O2)cc1)NO [Tubacin] (1000 nM) | 101% | -536% | 113% | 95.5% | 93.4% | 97.9% | 99.9% | 105% | 103% | 88.2% | 55.1% | 114% | 100% | 93.4% | 90.3% | 86.1% | 102% | 72.7% | 91.9% | 61.7% | 105% | 95.3% | 91.3% | 95.3% | 93.2% | 95.4% | 90.2% | 70.3% | 81.4% | 82.6% | 89.3% | 88.6% | 77.8% | 94.8% | 78.3% | 72.2% | 88.2% |
| CS(=O)(=O)c1ccc(C2=C(c3ccccc3)C(=O)OC2)cc1 [Rofecoxib] (1000 nM) | 112% | 127% | 118% | 102% | 108% | 100% | 105% | 116% | 108% | 112% | 96% | 98.2% | 101% | 99.8% | 99.2% | 103% | 112% | 82% | 98.8% | 103% | 122% | 116% | 101% | 112% | 118% | 102% | 103% | 97% | 107% | 97% | 95.4% | 103% | 104% | 105% | 104% | 103% | 100% |
